The record followed here is patent US9789194B2, “Graft copolymer polyelectrolyte complexes for drug delivery” (priority 2007, dated 2017).

In general, half-life refers to the time in which the quantity being followed falls by half. The low end stands for rapid decline, the high end for slow decline. Usually MIC stands for the lowest concentration found to suppress growth. Read a low MIC as greater potency.

Peptide text beside a SMILES is read from it. Bounds are passed on as bounds.

One series in a line: in vitro. The conditions noted are these: human, plasma, half-life of the peptide, 50% human plasma. The method, then: Aqueous solutions of the peptide:polymer complexes with various peptide:[…], were combined 1:1 v/v with human plasma sodium heparin anticoagulated, Biological Specialty Corporation) and placed in a 37° C. incubator. Fifty microliter aliquots of this mixture were injected at 1 h intervals onto a Prosphere HP C18-300 column, 250×4.6 mm ((Grace) mounted on a Waters HPLC system. The injection was loaded onto the column and equilibrated using a 90%/10%/0.1% water/acetonitrile/trifluoroacetic acid mobile phase and then eluted using a continuous gradient up to 70% acetonitrile. Integration of the KSL-W absorbance peak at 280 nm was used to determine peptide concentration in each sample. Every sample was run in parallel with a free-drug control at the same concentration.

Series [1] is described as follows: KSL-W binding efficiency by ultrafiltration. It counts as physicochemical. Conditions: free peptide, 10 kDa MWCO ultrafiltration. As for the experimental part:
Efficiency of binding for each polymer-drug complex was determined using ultrafiltration. Ultrafiltration cartridges with 10 k MWCO (Amicon Microcon Ultrafiltration Filters) were used according to manufacturer's instructions. […] The KSL-W content of filtrate and retentate were determined using HPLC as described above.

Series [2] in a line: KSL-W release profiles by dialysis. It counts as physicochemical. Conditions: free peptide, within the first 6 h of dialysis. The method, then:
Each membrane cartridge was placed into 40 mL of water at 37° C. with gentle rocking (VWR brand incubating rocker, 50 Hz/15°). […] The amount of KSL-W remaining in each cartridge was evaluated at each time point using HPLC.

Series [3] deals with Staphylococcus aureus UAMS-1. It counts as cell-based. As for the experimental part: The minimum inhibitory concentrations (MIC) KSL-W and its nanocomplexes were measured using the Clinical Laboratory Standards Institute (CLSI) broth microdilution method. Briefly, two-fold serial dilutions of free or complexed KSL-W solutions were prepared in THB medium at a volume of 200 µL/well in flat-bottom 96-well tissue culture plates (BD Biosciences). Hundred microliter of Staphylococcus aureus UAMS-1 (10^6 CFU/mL) was then added to each well. Plates were incubated overnight at 37° C. and then assessed by turbidity (absorbance at 600 nm). The concentration at which no turbidity was observed was considered the MIC. Each assay was reproduced in triplicate.

As for `CC(C)[C@H](NC(=O)[C@H](Cc1c[nH]c2ccccc12)NC(=O)[C@H](Cc1ccccc1)NC(=O)[C@@H](NC(=O)[C@@H](NC(=O)[C@H](CCCCN)NC(=O)[C@@H](N)CCCCN)C(C)C)C(C)C)C(=O)N[C@@H](CCCCN)C(=O)N[C@@H](Cc1ccccc1)C(=O)N[C@@H](CCCCN)C(N)=O` [KSL-W] (H-KKVVFWVKFK-NH2; N-terminus and C-terminus assumed), the half-life is 4 h in the series “in vitro” (initial KSL-W concentration between 33 and 72 μg/mL); 1 h in “in vitro” (initial concentration between 13:2 and 330). Further, in series [1], the “efficiency of passing through the membrane” value is “over 95%”. Moreover, in series [2], the “release through 8-10 kDa dialysis membrane” value is “over 95%”. Also, the “MIC (S. aureus UAMS-1)” value in series [3] (UAMS-1) fell in the range of 62 to 153 µg/mL. Further, the “MIC ratio (complexed/free)” value in series [3] (free peptide, charge ratio NA) is on record as 1.

gentamicin: the MIC in series [3] (same S. aureus strain and conditions) is less than 3100 µg/mL.
